pIC50: −log10 of the molar value.

Two compounds from ChEMBL document CHEMBL3867456, “Vetiverianines A, B, and C: Sesquiterpenoids from Vetiveria zizanioides Roots” (J Nat Prod, 2016) can be followed below.

This experiment can be described thus: Cytotoxicity against human HL60 cells assessed as cell growth inhibition after 72 hrs by MTT assay. It is filed as functional, cell-based. The conditions noted are these: HL-60, 72 h. (In general: Tetrazolium assays rely on reduction of a dye to a coloured formazan, in cell work by metabolically active cells.)

Broadly, the pIC50 is the IC50 on a negative log10 scale, so that one unit is a factor of ten. As to `C[C@@H]1CCC=C2CC[C@]3(C[C@]21C)O[C@]3(C)CO`, the pIC50 is 4.24. For `COc1cc([C@@H]2c3cc4c(cc3[C@@H](O[C@@H]3O[C@@H]5CO[C@@H](C)O[C@H]5[C@H](O)[C@H]3O)[C@H]3COC(=O)[C@H]23)OCO4)cc(OC)c1O` [ETOPOSIDE], the pIC50 was 6.52.
